Assay [1] has as its system Z138 mantle cell lymphoma tumour cell lines. The assay is described as follows: In vitro cytotoxicity, MTT assay. The format is cell-based. Conditions: Homo sapiens, Z-138; Z138 cells, exposed to the test compounds for 96 hours. An outline of the steps:
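Z138 cells exposed to compounds for 96 hours, then MTT added for 4 hours. Formazan absorbance at 540 nm serves as the measure of viable cell number.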
For orientation: Tetrazolium dyes change colour on reduction, which living cells bring about.

A further assay addresses T1, USP7 (Homo sapiens, UniProt Q93009, C315A).
T1 construct: 0.25 nM His-His-USP7 (aa208-560, |C315A|) was incubated with compound; His-His (N)
The assay is described as follows: Inhibition of USP7 by Fluorescence Intensity (FLINT) readings, Ubiquitin-Rhodamine-110 substrate. In kind it is biochemical. Particulars: 0.25 nM His-His-USP7 (aa208-560), 60 minutes at 30° C. preincubation; Ki determined from IC50 according to Cer et al. The procedure, abridged:
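His-tagged USP7 (aa208-560, C315A), 0.25 nM, preincubated with compound 60 min at 30 °C in 100 mM Bicine pH 8.0, 0.01% Triton X-100, 1 mM TCEP, 10% DMSO. Ubiquitin-Rhodamine-110 (50 nM or 4 μM) added; kinetic fluorescence (Ex 485/Em 535 nm) over 21 min; IC50 from 11-point curves, Ki derived from IC50.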

Molecules are shown by their SMILES.

In general, IC50 refers to the concentration at which inhibition is half-maximal. The low end stands for greater potency, the high end for weaker potency. By Ki is commonly meant the dissociation constant of the complex between target and ligand, obtained from inhibition or displacement.

T1 sequence (Q93009 208-560 C315A): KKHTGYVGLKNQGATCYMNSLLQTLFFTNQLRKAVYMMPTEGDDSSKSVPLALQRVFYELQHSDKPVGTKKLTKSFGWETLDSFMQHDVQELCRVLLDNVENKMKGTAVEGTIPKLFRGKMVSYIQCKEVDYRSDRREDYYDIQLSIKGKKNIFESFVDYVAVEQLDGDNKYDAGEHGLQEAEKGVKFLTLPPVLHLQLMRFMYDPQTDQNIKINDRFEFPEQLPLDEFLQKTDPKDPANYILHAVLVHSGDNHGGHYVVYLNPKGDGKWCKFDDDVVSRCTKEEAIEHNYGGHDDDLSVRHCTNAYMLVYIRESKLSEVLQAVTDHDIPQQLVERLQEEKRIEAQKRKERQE

For `Nc1c(Oc2ccc(F)cc2)ncn(CC2(O)CCN(C(=O)[C@@H]3CCN(C4(c5cccc(F)c5)COC4)C[C@H]3c3ccccc3)CC2)c1=O` [Example 153, 5-amino-6-(4-fluorophenoxy)-3-[[1-[(3R,4R)-1-[3-(3-fluorophenyl)oxetan-3-yl]-3-phenyl-piperidine-4-carbonyl]-4-hydroxy-4-piperidyl]methyl]pyrimidin-4-one], the IC50 in assay [1] is 0.062 µM. The compound further displayed a Ki at USP7 of 0.0287 µM.
The like results for `Nc1c(Oc2ccc(F)cc2)ncn(C[C@@]2(O)CCN(C(=O)[C@@H]3CCN(Cc4ccccc4F)C[C@H]3c3ccccc3)CC2(F)F)c1=O` [Example 54, 5-amino-3-{[(4S)-3,3-difluoro-1-((3R,4R)-1-[(2-fluorophenyl)methyl]-3-phenylpiperidine-4-carbonyl}-4-hydroxypiperidin-4-yl}methyl)-6-(4-fluorophenoxy)pyrimidin-4(3H)-one] were, in that order, 0.0091 µM and 0.013 µM.
The like results for `Cc1nc(C2CCOCC2)sc1C(=O)N1CC[C@@H](C(=O)N2CCC(O)(Cn3cnc(Oc4ccc(F)cc4)c(N)c3=O)CC2)[C@H](c2ccccc2)C1` [Example 191, 5-amino-6-(4-fluorophenoxy)-3-[[4-hydroxy-1-[(3R,4R)-1-(4-methyl-2-tetrahydropyran-4-yl-thiazole-5-carbonyl)-3-phenyl-piperidine-4-carbonyl]-4-piperidyl]methyl]pyrimidin-4-one] were, in that order, 0.0201 µM and 0.0177 µM.
Compound `Cc1nc(C2CCC2)sc1C(=O)N1CC[C@@H](C(=O)N2CCC(O)(Cn3cnc(Oc4ccc(F)cc4)c(N)c3=O)CC2)[C@H](c2ccccc2)C1` [Example 165, 5-amino-3-[[1-[(3R,4R)-1-(2-cyclobutyl-4-methyl-thiazole-5-carbonyl)-3-phenyl-piperidine-4-carbonyl]-4-hydroxy-4-piperidyl]methyl]-6-(4-fluorophenoxy)pyrimidin-4-one] returned an IC50 in assay [1] of 0.00274 µM. Further, the Ki on USP7 came to 0.00933 µM.
On the same counts, the results for `Cc1ccc(-c2cc(F)c(C(=O)N3CC[C@@H](C(=O)N4CC[C@](O)(Cn5cnc(Oc6ccc(F)cc6)c(N)c5=O)C(F)(F)C4)[C@H](c4ccccc4)C3)s2)cn1` [Example 105, 5-amino-3-([(4S)-3,3-difluoro-1-((3R,4R)-1-[3-fluoro-5-(6-methylpyridin-3-yl)thiophene-2-carbonyl]-3-phenylpiperidine-4-carbonyl}-4-hydroxypiperidin-4-yl}methyl}-6-(4-fluorophenoxy)pyrimidin-4(3H)-one] are 0.00508 µM and 0.0026 µM.
On the same counts, the results for `Nc1c(Oc2ccc(F)cc2)ncn(CC2(O)CCN(C(=O)[C@@H]3CCN(C4(c5cccc(Cl)c5)COC4)C[C@H]3c3ccccc3)CC2)c1=O` [Example 171] are 0.0314 µM and 0.0428 µM.
`Nc1c(Oc2ccc(F)cc2)ncn(CC2(O)CCN(C(=O)[C@@H]3CCN(C(=O)c4cc(F)cc(F)c4)C[C@H]3c3ccccc3)CC2)c1=O` [Example 129, 5-amino-3-[[1-[(3R,4R)-1-(3,5-difluorobenzoyl)-3-phenyl-piperidine-4-carbonyl]-4-hydroxy-4-piperidyl]methyl]-6-(4-fluorophenoxy)pyrimidin-4-one] registered an IC50 in assay [1] of 0.0052 µM. Moreover, at USP7, the Ki was determined as 0.00287 µM.
Compound `Nc1c(Oc2ccc(F)cc2)ncn(C[C@@]2(O)CCN(C(=O)[C@@H]3CCN(Cc4cnccn4)C[C@H]3c3ccccc3)CC2(F)F)c1=O` [Example 202, 5-amino-3-[[(4S)-3,3-difluoro-4-hydroxy-1-[(3R,4R)-3-phenyl-1-(pyrazin-2-ylmethyl)piperidine-4-carbonyl]-4-piperidyl]methyl]-6-(4-fluorophenoxy)pyrimidin-4-one] registered an IC50 in assay [1] of 0.0117 µM. Besides, the affinity at USP7 corresponds to a Ki of 0.0218 µM.
In the case of `Nc1c(Oc2ccc(F)cc2)ncn(CC2(O)CCN(C(=O)[C@@H]3CCN(Cc4cnc(Br)s4)C[C@H]3c3ccccc3)CC2)c1=O` [Example 50, 5-amino-3-[[1-[(3R,4R)-1-[(2-bromothiazol-5-yl)methyl]-3-phenyl-piperidine-4-carbonyl]-4-hydroxy-4-piperidyl]methyl]-6-(4-fluorophenoxy)pyrimidin-4-one], half-maximal inhibition in assay [1] (IC50) was put at 0.00617 µM. For the same compound, the Ki on USP7 is 0.00789 µM.
In turn, `Cc1ccc(-c2nc(C)c(C(=O)N3CC[C@@H](C(=O)N4CCC(O)(Cn5cnc(Oc6ccc(CNC(=O)OC(C)(C)C)cc6)c(N)c5=O)CC4)[C@H](c4ccccc4)C3)s2)cn1` [Example 223, tert-butyl N-[[4-[5-amino-1-[[4-hydroxy-1-[(3R,4R)-1-[4-methyl-2-(6-methyl-3-pyridyl)thiazole-5-carbonyl]-3-phenyl-piperidine-4-carbonyl]-4-piperidyl]methyl]-6-oxo-pyrimidin-4-yl]oxyphenyl]methyl]carbamate] displayed an IC50 in assay [1] of 0.0732 µM. On USP7, the Ki was 0.0042 µM.
The like results for `COc1cc(Oc2ncn(C[C@@]3(O)CCN(C(=O)[C@@H]4CCN(Cc5cnc(C)cn5)C[C@H]4c4ccccc4)CC3(F)F)c(=O)c2N)ccc1F` [Example 154] were, in that order, 0.0114 µM and 0.0078 µM.
On the same counts, the results for `COc1cc(Oc2ncn(C[C@@]3(O)CCN(C(=O)[C@@H]4CCN(Cc5ccnc(C)n5)C[C@H]4c4ccccc4)CC3(F)F)c(=O)c2N)ccc1C1CC1` [Example 188, 5-amino-6-(4-cyclopropyl-3-methoxy-phenoxy)-3-[[(4S)-3,3-difluoro-4-hydroxy-1-[(3R,4R)-1-[(2-methylpyrimidin-4-yl)methyl]-3-phenyl-piperidine-4-carbonyl]-4-piperidyl]methyl]pyrimidin-4-one] are 0.069 µM and 0.0699 µM.
Compound `Cc1nccc(CN2CC[C@@H](C(=O)N3CCC(O)(Cn4cnc(Oc5ccc(CO)cc5)c(N)c4=O)CC3)[C@H](c3ccccc3)C2)n1` [Example 200] displayed an IC50 in assay [1] of 0.106 µM. The compound also showed a Ki at USP7 of 0.03 µM.
On the same counts, the results for `Nc1c(Oc2ccc(F)cc2)ncn(C[C@@]2(O)CCN(C(=O)[C@@H]3CCNC[C@H]3c3ccccc3)CC2(F)F)c1=O` [Example 11, 5-amino-3-[[(4S)-3,3-difluoro-4-hydroxy-1-[(3R,4R)-3-phenylpiperidine-4-carbonyl]-4-piperidyl]methyl]-6-(4-fluorophenoxy)pyrimidin-4-one] are 0.39 µM and 0.0994 µM.
The compound `COc1cc(Oc2ncn(C[C@@]3(O)CCN(C(=O)[C@@H]4CCN(Cc5cnc(C)cn5)C[C@H]4c4ccccc4)CC3(F)F)c(=O)c2N)ccc1Cl` [Example 183, 5-amino-6-(4-chloro-3-methoxy-phenoxy)-3-[[(4S)-3,3-difluoro-4-hydroxy-1-[(3R,4R)-1-[(5-methylpyrazin-2-yl)methyl]-3-phenyl-piperidine-4-carbonyl]-4-piperidyl]methyl]pyrimidin-4-one] registered a concentration for half-maximal inhibition (IC50) in assay [1] of 0.0095 µM. The Ki at USP7 worked out at 0.037 µM.
In assay [1], `COc1cc(Oc2ncn(C[C@@]3(O)CCN(C(=O)[C@@H]4CCN(Cc5ccnc(C)n5)C[C@H]4c4ccccc4)CC3(F)F)c(=O)c2N)ccc1Cl` [Example 182] showed an IC50 of 0.00995 µM. The same compound gave a Ki on USP7 of 0.0404 µM.
In the case of `Nc1c(Oc2ccc(F)cc2)ncn(CC2(O)CCN(C(=O)[C@@H]3CCN(C(=O)Nc4ccccc4C(F)(F)F)C[C@H]3c3ccccc3)CC2)c1=O` [Example 128, (3R,4R)-4-[4-[[5-amino-4-(4-fluorophenoxy)-6-oxo-pyrimidin-1-yl]methyl]-4-hydroxy-piperidine-1-carbonyl]-3-phenyl-N-[2-(trifluoromethyl)phenyl]piperidine-1-carboxamide], half-maximal inhibition in assay [1] (IC50) was put at 0.075 µM. The affinity at USP7 corresponds to a Ki of 0.0386 µM.
On the same counts, the results for `Cc1cccc(C(=O)N2CC[C@@H](C(=O)N3CCC(O)(Cn4cnc(Oc5ccc(F)cc5)c(N)c4=O)CC3)[C@H](c3ccccc3)C2)n1` [Example 93] are 0.0864 µM and 0.051 µM.
Compound `Nc1c(Oc2ccc(F)cc2)ncn(CC2(O)CCN(C(=O)[C@@H]3CCN(C(=O)Nc4nccs4)C[C@H]3c3ccccc3)CC2)c1=O` [Example 86, (3R,4R)-4-[4-[[5-amino-4-(4-fluorophenoxy)-6-oxo-pyrimidin-1-yl]methyl]-4-hydroxy-piperidine-1-carbonyl]-3-phenyl-N-thiazol-2-yl-piperidine-1-carboxamide] had an IC50 in assay [1] of 0.838 µM. The Ki on USP7 was found to be 0.058 µM.
For `Cc1ncc(-c2nc(C)c(C(=O)N3CC[C@@H](C(=O)N4CC[C@](O)(Cn5cnc(Oc6ccc(F)cc6)c(N)c5=O)C(F)(F)C4)[C@H](c4ccccc4)C3)s2)cc1C(F)(F)F` [Example 185, 5-amino-3-[[(4S)-3,3-difluoro-4-hydroxy-1-[(3R,4R)-1-[4-methyl-2-[6-methyl-5-(trifluoromethyl)-3-pyridyl]thiazole-5-carbonyl]-3-phenyl-piperidine-4-carbonyl]-4-piperidyl]methyl]-6-(4-fluorophenoxy)pyrimidin-4-one], the IC50 in assay [1] amounted to 0.00765 µM. The affinity on USP7 corresponds to a Ki of 0.013 µM.
As for `Cc1nc(N2CCCC2)sc1C(=O)N1CC[C@@H](C(=O)N2CCC(O)(Cn3cnc(Oc4ccc(F)cc4)c(N)c3=O)CC2)[C@H](c2ccccc2)C1` [Example 65, 5-amino-6-(4-fluorophenoxy)-3-[(4-hydroxy-1-{(3R,4R)-1-[4-methyl-2-(pyrrolidin-1-yl)-1,3-thiazole-5-carbonyl]-3-phenylpiperidine-4-carbonyl]piperidin-4-yl)methyl]pyrimidin-4(3H)-one], in assay [1], the IC50 was determined as 0.00766 µM. Also, the Ki on USP7 was 0.0042 µM.
The like results for `Cc1nc(C2CC(F)(F)C2)sc1C(=O)N1CC[C@@H](C(=O)N2CCC(O)(Cn3cnc(Oc4ccc(F)cc4)c(N)c3=O)CC2)[C@H](c2ccccc2)C1` [Example 189] were, in that order, 0.00634 µM and 0.0111 µM.

Source of the values: US20210355106A1, “NEW AMINO-PYRIMIDONYL-PIPERIDINYL DERIVATIVES, A PROCESS FOR THEIR PREPARATION AND PHARMACEUTICAL COMPOSITIONS CONTAINING THEM” (LES LABORATOIRES SERVIER, priority 2018, published 2021).
